Test: in vitro
Details: human, hela cells

Row | Compound | viability at 28.5 h, 10 µM [%]
1 | O=C(Nc1ccc(OC(=O)N2CCCCC2)cc1)N1CCCCC1 [CBK090060] | 88.6

Same assay, conditions: human, hela cells, % viability

Row | Compound | viability at 28.5 h, 10 µM [%]
2 | CC(C)CNc1nccnc1-c1cccc(C=O)c1 [CBK088744] | 100
3 | CCC(CO)Nc1nccnc1-c1ccoc1 (stereo not drawn) [CBK088756] | 100
4 | OCCN1CCN(c2nccnc2-c2cccs2)CC1 [CBK088811] | 106
5 | CN1CCCN(c2nccnc2-c2cccc(O)c2)CC1 [CBK088820] | 112
6 | CN1CCCN(c2nccnc2-c2cccs2)CC1 [CBK088823] | 98.5
7 | CN1CCN(c2nccnc2-c2ccoc2)CC1 [CBK088834] | 98.6
8 | Nc1nn2c(c1Cc1c(Cl)cccc1Cl)OCCC2 [CBK088843] | 92.8
9 | OCCNc1nccnc1-c1ccc2c(c1)OCO2 [CBK088984] | 95
10 | NC(=O)c1cccc(-c2nccnc2NCCO)c1 [CBK088993] | 97
11 | CC(C)[C@H](CO)Nc1nccnc1-c1ccncc1 [CBK089030] | 91.9
12 | COc1ccc(-c2nccnc2N[C@@H](CO)C(C)C)cc1 [CBK089040] | 98.5
13 | CC(C)[C@H](CO)Nc1nccnc1-c1cccs1 [CBK089047] | 99
14 | OCC1CCCN1c1nccnc1-c1cccnc1 (stereo not drawn) [CBK089049] | 101
15 | OCC1CCCN1c1nccnc1-c1cccc(O)c1 (stereo not drawn) [CBK089052] | 109
16 | OCc1ccc(-c2nccnc2N2CCCC2CO)cc1 (stereo not drawn) [CBK089053] | 96.3
17 | O=C1CCCN1CCCNc1nccnc1-c1cccnc1 [CBK089246] | 110
18 | Nc1cccc(-c2nccnc2NCc2cccnc2)c1 [CBK089310] | 105
19 | CC(C)(CNC(=O)CN1CCOCC1)NC(=O)OC(C)(C)C [CBK089350] | 88.7
20 | CCC1CCCCN1C(=O)c1sc(C)nc1C (stereo not drawn) [CBK089359] | 105
21 | CCC1CCCCN1C(=O)c1cc(Br)c(Br)s1 (stereo not drawn) [CBK089360] | 92.5
22 | O=C(Nc1ccccc1Cl)Nc1[nH]nc(O)c1Cc1c(Cl)cccc1Cl [CBK089367] | 113
23 | CC(C)Nc1nccnc1Sc1ccc(N)cc1 [CBK089485] | 77.1
24 | CC(C)Nc1nccnc1Sc1ccccc1O [CBK089492] | 92.1
25 | CC(C)Nc1nccnc1Sc1cccc2ccccc12 [CBK089493] | 100

Row | Compound | viability at 28.5 h, 10 µM [%]
26 | CC(C)Nc1cc(Sc2ccc(F)cc2)ncn1 [CBK089498] | 94.2
27 | c1ccc2c(Sc3nccnc3N3CCCC3)cccc2c1 [CBK089527] | 89.2
28 | FC(F)(F)c1ccc(Sc2cccc3ccccc23)nc1 [CBK089553] | 93.7
29 | Nc1ccc(Sc2nc3ccccc3nc2C(F)(F)F)cc1 [CBK089560] | 100
30 | Cc1ccc(C(=O)N2CN(C(=O)CNC(C)(C)C)CC2(C)C)cc1 [CBK089575C] | 88.6
31 | Cc1ccc(C(=O)N2CN(C(=O)CNCC(C)C)CC2(C)C)cc1 [CBK089576C] | 96
32 | c1ccc2c(Sc3cncc(N4CCCC4)n3)cccc2c1 [CBK089594] | 88.2
33 | CC(C)(C)c1ccc(-c2cnc3ncccc3c2O)cc1 [CBK089628] | 84.3
34 | CCNc1cc2ccccc2c(-c2ccc3c(c2)OCCCO3)n1 [CBK089641] | 99.2
35 | CC(=O)c1cc2cnccc2[nH]c1=O [CBK089771] | 86.5
36 | CC(=O)Cc1nc2ccccc2nc1O [CBK089805] | 92.2
37 | NC(=O)c1ccnc(Cl)c1 [CBK089827] | 96
38 | O=C(Nc1cccnc1)c1ccnc(Cl)c1 [CBK089829] | 100
39 | COc1ccc2[nH]c3c(c2c1)CCN[C@]31CCN(CCOc2ccc(F)cc2)C1 [CBK089876T] | 73.6
40 | COC(=O)c1sc2cc(C(F)(F)F)cnc2c1-c1cccnc1 [CBK089885] | 112
41 | COC(=O)c1sc2cc(C(F)(F)F)cnc2c1-c1ccccn1 [CBK089888] | 93.2
42 | O=C(O)c1sc2cc(C(F)(F)F)cnc2c1-c1cccs1 [CBK089890] | 114
43 | Oc1c2c(nn1Cc1ccccc1)CCCC2 [CBK089898] | 87.4
44 | O=C(Oc1ccccc1O)c1cccc(Cl)c1 [CBK090130] | 97.1
45 | Cc1cccc(C(=O)Oc2ccc(-n3ccnc3)cc2)c1 [CBK090137] | 101
46 | O=C(O)c1ccc(OC(=O)C2CCCC2)cc1 [CBK090156] | 103
47 | CN1C2CCCC1CC(OC(=O)c1cccc3nc[nH]c13)C2 (stereo not drawn) [CBK090162] | 99.3
48 | COc1ccccc1OC(=O)c1ccccc1Cl [CBK090164] | 81.4
49 | CN1CCCC(OC(=O)C2CCCCC2)C1 (stereo not drawn) [CBK090234] | 104

Row | Compound | viability at 28.5 h, 10 µM [%]
50 | COc1cc(Nc2cc(-c3ccc4c(c3)OCO4)ncn2)cc(OC)c1OC [CBK090704] | 101
51 | COc1cc(Nc2cc(-c3ccc(F)c(F)c3)ncn2)cc(OC)c1OC [CBK090711] | 94.7
52 | CC(=O)Nc1ccc(Nc2cc(-c3ccco3)ncn2)cc1 [CBK090719] | 100
53 | COc1cncc(-c2cc(Nc3cccc(OC)c3OC)ncn2)c1 [CBK090728] | 97.8
54 | COc1cccc(Nc2cc(-c3ccc(N4CCOCC4)cc3)ncn2)c1 [CBK090733] | 68.7
55 | COc1cccc(Nc2cc(-c3ccco3)ncn2)c1 [CBK090740] | 101
56 | COc1cncc(-c2cc(Nc3ccc(O)cc3)ncn2)c1 [CBK090752] | 98
57 | COc1ccc(Nc2cc(-c3ccc(CNC(=O)OC(C)(C)C)cc3)ncn2)c(OC)c1 [CBK090757] | 90.8
58 | COc1ccc(Nc2cc(-c3cc(OC)c(OC)c(OC)c3)ncn2)c(OC)c1 [CBK090759] | 95.4
59 | OCCc1ccc(Nc2cc(-c3cccnc3)ncn2)cc1 [CBK090768] | 114
60 | OCCc1ccc(Nc2cc(-c3ccsc3)ncn2)cc1 [CBK090769] | 103
61 | NC(=O)c1ccc(-c2cc(Nc3ccc(CCO)cc3)ncn2)cc1 [CBK090773] | 102
62 | COc1cncc(-c2cc(Nc3cc(OC)c(OC)cc3C)ncn2)c1 [CBK090782] | 84.9
63 | COc1cc(C)c(Nc2cc(-c3ccc(CC(C)C)cc3)ncn2)cc1OC [CBK090785] | 91.2
64 | COCCNc1cc(-c2ccccc2N(C)C)ncn1 [CBK090790] | 109
65 | COCCNc1cc(-c2cccc3oc4ccccc4c23)ncn1 [CBK090794] | 101
66 | COCCNc1cc(-c2ccco2)ncn1 [CBK090796] | 92.5
67 | COc1cncc(-c2cc(Nc3ccc(OC)c(OC)c3)ncn2)c1 [CBK090824] | 92
68 | CN(C)c1ccc(-c2cc(NCCc3ccncc3)ncn2)cc1 [CBK090849] | 94.2
69 | CN(C)c1ccccc1-c1cc(Nc2ccc3cn[nH]c3c2)ncn1 [CBK090850] | 55.7
70 | c1coc(-c2cc(Nc3ccc4[nH]ccc4c3)ncn2)c1 [CBK090862] | 95.5
71 | CCNc1cc(-c2ccco2)ncn1 [CBK090879] | 108
72 | CCCCCOc1ccc(Nc2cc(-c3ccc(N(C)C)cc3)ncn2)cc1 [CBK090889] | 106
73 | CC(C)(C)OC(=O)NCc1ccc(-c2cc(NC3CCCCC3)ncn2)cc1 [CBK090898] | 98.5

Row | Compound | viability at 28.5 h, 10 µM [%]
74 | c1coc(-c2cc(NC3CCCCC3)ncn2)c1 [CBK090901] | 91.2
75 | COc1cncc(-c2cc(NC3CCCCC3)ncn2)c1 [CBK090903] | 96.5
76 | COc1ccc(-c2cc(NC3CCCCC3)ncn2)cc1 [CBK090904] | 96.8
77 | COc1ccc(-c2cc(Nc3ccccc3)ncn2)cc1 [CBK090911] | 93.9
78 | Fc1ccc(-c2cc(Nc3ccccc3)ncn2)cc1F [CBK090913] | 105
79 | CN1CCN(c2ccc(-c3cc(Nc4cccc(OCc5ccccc5)c4)ncn3)cn2)CC1 [CBK090918] | 113
80 | c1ccc2cc(-c3cc(Nc4ccc(N5CCOCC5)cc4)ncn3)ccc2c1 [CBK090929] | 94.2
81 | COc1ccccc1-c1cc(Nc2ccc(N3CCOCC3)cc2)ncn1 [CBK090933] | 83.7
82 | FC(F)(F)Oc1ccc(-c2cc(Nc3ccc(N4CCOCC4)cc3)ncn2)cc1 [CBK090934] | 88.9
83 | CN(C)c1ccc(Nc2cc(-c3ccc(OCc4ccccc4)cc3)ncn2)cc1 [CBK090941] | 113
84 | CC(C)(C)OC(=O)NCCc1ccc(Nc2cc(-c3ccc4c(c3)OCO4)ncn2)cc1 [CBK090957] | 92.5
85 | CC(C)(C)OC(=O)NCCc1ccc(Nc2cc(-c3ccsc3)ncn2)cc1 [CBK090958] | 115
86 | CC(C)(C)OC(=O)NCCc1ccc(Nc2cc(-c3cc4ccccc4s3)ncn2)cc1 [CBK090959] | 94.3
87 | COc1cncc(-c2cc(N3CCC(N4CCCCC4)CC3)ncn2)c1 [CBK090964] | 90.3
88 | Cc1ccc(S(=O)(=O)Nc2ccc(Nc3cc(-c4cc(C(F)(F)F)cc(C(F)(F)F)c4)ncn3)cc2)cc1 [CBK090968] | 99.6
89 | Cc1ccc(S(=O)(=O)Nc2ccc(Nc3cc(-c4cc5ccccc5o4)ncn3)cc2)cc1 [CBK090976] | 96.8
90 | CCN(CCO)c1ccc(Nc2cc(-c3cc(C(F)(F)F)cc(C(F)(F)F)c3)ncn2)cc1 [CBK090994] | 106
91 | CCN(CCO)c1ccc(Nc2cc(-c3cc4ccccc4o3)ncn2)cc1 [CBK090999] | 94.8
92 | COc1ccccc1-c1cc(Nc2cccc(N(C)C)c2)ncn1 [CBK091011] | 95.5
93 | CN(C)c1cccc(Nc2cc(-c3cccc([N+](=O)[O-])c3)ncn2)c1 [CBK091012] | 102
94 | CN(C)c1cccc(Nc2cc(-c3ccco3)ncn2)c1 [CBK091014] | 87.5
95 | COc1ccc(N2CCN(c3cc(-c4cccc5ccccc45)ncn3)CC2)cc1OC [CBK091022] | 43.4

Same assay, conditions: human, hela cells, % viability, bulk resorufin, single well

Row | Compound | viability at 28.5 h, 10 µM [%]
96 | CCOC(=O)N1CCC2(CC1)Oc1ccc(-c3cc(OC)c(OC)c(OC)c3)cc1O2 [CBK090282] | 90.9

From PMC12040169 (PLOS Biology, 2025)
